Assay results taken from publication PMC10065799, “High-throughput profiling of sequence recognition by tyrosine kinases and SH2 domains using bacterial peptide display” (eLife, 2023).

Each sequence was assayed on Fer kinase domain (assay: pTyr-Var library bacterial peptide display kinase screen (enrichment scores)). Settings: sheet "Fer"; value of the variant peptide against its reference peptide in the pTyr-Var library screen with Fer.
Type: biochemical, mouse
TRDVNYGWIIH [MT-CYB_Y75_R80H] was tested, and the Screen was 3.39.
Sequence KDQGIYEDFVE [MYL6_Y86_T85I_YF] has a Screen of 1.02.
For QRRNVYFFSFL [PTEN_Y176_Y174N_YF], the Screen was -1.418.
ICGVSYDEFRF [CFTR_Y512_F508C_YF] was tested, and the Screen was -0.3864.
For CSRCFYQLTKL [AR_Y858_R856C], the Screen was 1.959.
For PAIFTYDEFKK [COL8A2_Y648_T645I_YF], the Screen was -2.501.
NAGAFYVLSTL [FLVCR2_Y325_A326V] gave a Screen of -2.63.
For SKHHLYSDLQT [PTCHD1_Y84_R82H], the Screen was 1.431.
Sequence FLTQHYDAIPQ [ANG_Y38_K41I] has a Screen of 3.881.
AMGPVYQAAAL [HYOU1_Y421_A419P] was tested, and the Screen was 1.97.
Work on VDEVLYEDSSA [MTHFS_Y197_T202A] yielded a Screen of -0.2341.
With QTEAPYRFIFM [PTPN11_Y511_Q510P_YF] the Screen was 2.526.
For ETEMLYGSARR [PRC1_Y464_P468R], the Screen was -2.34.
In the case of SSSNPYSTVTV [ACTN2_Y599_M604V], the Screen is reported as -0.1641.
Sequence VFGVSYDEFRF [CFTR_Y512_I507V_YF] has a Screen of 0.375.
In the case of MFNPCYGLFEF [NEDD4L_Y680_Y679C_YF], the Screen is reported as -0.1579.

Same assay, conditions: sheet "Fer"; variant peptide relative to its reference peptide, pTyr-Var library screen enrichment
VQVAFYTVMMN [SPATA17_Y84_M86V_YF] showed a Screen of -1.379.
Sequence KRAAIYNPVIF [RHO_Y301_S297R_YF] has a Screen of -0.6585.
With PKDSAYVTWEP [TTN_Y20731_S20726P] the Screen was 0.6125.
In the case of QDRTFYERVRT [SPEN_Y633_S635R_YF], the Screen is reported as -1.346.
For AKAFIYASHIV [ZNF573_Y229_G224A], the Screen was 0.4356.

What follows are sequences tested on EPHB1 kinase domain in the same assay as above. Settings: sheet "EPHB1"; variant seq vs reference seq; bacterial peptide display enrichment.
Type: biochemical, human
In the case of HLGNQYVNVMN [SLC3A1_Y461_R456H], the “Screen (variant relative to reference peptide, measured in the pTyr-Var library screen)” value is reported as -0.5071.

Same assay, conditions: sheet EPHB1; effect of the variant peptide relative to its reference peptide in the pTyr-Var library screen (enrichment scores)
In the case of RDLHTYIMPAH [PNMT_Y256_R254H], the Screen is reported as -2.793.
For VKMLPYTEVTR [GDI1_Y93_L92P], the Screen was -2.754.
TTPFNYSFIFK [RAB14_Y8_A4T_YF] showed a Screen of 0.03762.
For QRASDYFSQQM [GBP6_Y333_A331S_YF], the Screen was 1.684.
Work on LLASGYDSPIN [ABLIM1_Y638_R637G] yielded a Screen of -0.7648.

The sequences below were run against c-Src kinase domain (Homo sapiens, UniProt P12931) in the same assay as above. Settings: not given.
Type: biochemical
FSQQTYFPVSN [ABCD1_Y180_R182P_YF] was tested, and the Screen was 1.076.

Same assay, conditions: sheet "Src"; effect of the variant peptide against its reference peptide, seen in the pTyr-Var library screen
In the case of AKAFIYASHIV [ZNF573_Y229_G224A], the Screen is reported as 0.3183.

Same assay, conditions: sheet "Src"; effect of the variant peptide relative to its reference peptide in the pTyr-Var library screen
With KVPAIYGVGTR [CPS1_Y162_D165G] the Screen was 1.669.
Work on ICGVSYDEFRF [CFTR_Y512_F508C_YF] yielded a Screen of -0.6525.
PAIFTYDEFKK [COL8A2_Y648_T645I_YF] was tested, and the Screen was 0.8342.
FQKNVYSEELR [LMNA_Y211_I210V] showed a Screen of -1.452.
Work on ACLSLYGGFVE [MVD_Y164_R161L] yielded a Screen of -0.5782.
In the case of VVKTVYSLQPS [KNSTRN_Y87_P92S], the Screen is reported as -0.2694.
Work on SSFDTYHLSRE [KIR3DL2_Y253_I252T_YF] yielded a Screen of -1.121.
With DPLLTYQFPPK [LMNA_Y481_R482Q] the Screen was 1.304.
AMGPVYQAAAL [HYOU1_Y421_A419P] gave a Screen of 0.5389.
SSSNPYSTVTV [ACTN2_Y599_M604V] showed a Screen of -0.5875.
ELQGTYTSLQQ [KIF3C_Y574_R571Q] was tested, and the Screen was 1.278.
In the case of VFGVSYDEFRF [CFTR_Y512_I507V_YF], the Screen is reported as 0.2836.
TDTQLYGRFGS [ITGA2B_Y384_G380D] showed a Screen of -0.04787.

Same assay, conditions: sheet "Src"; variant peptide versus its reference peptide in the pTyr-Var library screen
IATTIYSGDKI [UGGT2_Y823_A821T] was tested, and the Screen was -1.846.
KDQGIYEDFVE [MYL6_Y86_T85I_YF] gave a Screen of 1.232.
Sequence GFEEAYSVSKK [PAFAH1B1_Y28_F31S_YF] has a Screen of -2.622.
Sequence DFPGIYSGFDD [POLR1C_Y33_N32I_YF] has a Screen of 3.694.
For AQMAMYFWEMS [TRPM4_Y577_G582S], the Screen was -0.06271.
With VVSLFYGTALF [OR10C1_Y251_M246V] the Screen was -0.3109.
For AGIVVYNIIGW [MYH7_Y588_D587V], the Screen was 2.236.
In the case of FKEVVYQAMEE [TACC3_Y684_E680K], the Screen is reported as -0.2069.
KRAAIYNPVIF [RHO_Y301_S297R_YF] showed a Screen of -1.114.
With GSSKIYFLHAD [TLR5_Y108_P112A] the Screen was -1.042.
With KGSLPYSLILD [PKD1L2_Y406_N407S] the Screen was 1.59.
For PKDSAYVTWEP [TTN_Y20731_S20726P], the Screen was 0.3327.
ETEMLYGSARR [PRC1_Y464_P468R] showed a Screen of -0.8951.
LREKVYVSLEA [RXRA_Y397_A398V] gave a Screen of -2.342.
HITQVYGFFDE [PPP2CA_Y127_Q122H_YF] gave a Screen of 0.5425.
MFNPCYGLFEF [NEDD4L_Y680_Y679C_YF] showed a Screen of -0.1736.
GFFDLYGGEKF [PTPN11_Y66_D61G_YF] showed a Screen of -0.05122.
